Assay results: the NIST ThermoML archive (doi:10.1016/j.jct.2006.07.023)
Where “and” joins values, the source holds several entries; their conditions need not be identical. Equal values may be shown once. Numbers after ± are expanded uncertainties.

How the values were obtained:
[1] = DTA
[2] = Molar enthalpy of transition or fusion; details: DSC

Compound | Triple point temperature ([1]; Crystal) | Glass transition temperature [1] [°C] | Molar enthalpy of transition or fusion ([2]; Crystal) | Triple point temperature ([1]; Metastable crystal) [K] | Molar enthalpy of transition or fusion ([2]; Metastable crystal) [kcal/mol]
CC(=O)[O-].CC(=O)[O-].[Pb+2] [lead(2+) acetate] | 452.3 ± 1.6 K | 41.2 ± 3 | 3.78 ± 0.0956 kcal/mol | – | –
CCCC(=O)[O-].CCCC(=O)[O-].[Pb+2] [lead(2+) dibutanoate] | 346.5 ± 0.7 K and 346.3 ± 0.9 K | 1.8 ± 3 | 3.51 kcal/mol and 3.49 kcal/mol | 322.8 ± 1.1 | 1.84 ± 0.191
CCC(=O)[O-].CCC(=O)[O-].[Pb+2] [lead(2+) dipropanoate] | 398.1 ± 1.1 K | 25 ± 3 | 3.13 ± 0.0956 kcal/mol | – | –
